Assay results taken from patent US11739083B2, “Disposable sensor chip with reagent including 2-substituted benzothiazolyl-3-substituted phenyl-5-substituted sulfonated phenyl-2H-tetrazolium salt” (TERUMO KABUSHIKI KAISHA, priority 2016, dated 2023).
≈ marks a conversion by molar mass, not a printed value.

Columns and labels:
[1] = Maximum absorption wavelength (λmax) of formazan-nickel chelate by spectrophotometer; type: physicochemical; conditions: chelate of formazan and nickel ion, aqueous MOPS, cell length 10 mm, n=1
Protocol: 10 mM aqueous solution of MOPS was added to each of the formazan compounds so as to obtain a final concentration of […], and thereby 100 μL of a sample was produced. At this time, all of the samples were red-brown in color. Apart from this, a 1 M aqueous solution of nickel ion was produced.
For mixed solutions of various compounds in an aqueous solution of formazan and an aqueous solution of nickel, the spectra were measured with a spectrophotometer (measurement cell length: 10 mm) (n=1). Based on each of the spectra, the maximum absorption wavelength (λmax) (nm) of each of the compounds in formazan was determined. From FIG. 1, it is understood that the maximum absorption wavelength (λmax) of the chelate compound of formazan compound 1 and nickel ion is 630 nm.
The absorbance at the maximum absorption wavelength is denoted as 100%.

[2] = Evaluation of sensitivity (colour development with glucose, GDH-FAD, m-PMS, nickel; gradient versus WST-4); conditions: for Sensitivity, comparison with Comparative Example 5 (ratio) / Sensitivity, comparison with Comparative Example 5 (rating): gradientsample/gradientWST-4; for Sensitivity, comparison with Comparative Example 5 (rating): absorbance at λmax versus glucose concentration, cell length 50 μm
Protocol: Separately, 100 μL of RO water was added to 7 mg of a glucose dehydrogenase that uses flavin adenine dinucleotide (FAD) as a coenzyme (GDH-FAD) (manufactured by TOYOBO CO., LTD., product No.: GLD-351), the enzyme was dissolved, and thus a GDH solution was produced. Furthermore, 200 μL of RO water was added to 3.5 mg of 1-methoxy-5-methylphenazium methyl sulfate (m-PMS) (manufactured by DOJINDO LABORATORIES), and the compound was dissolved therein. Thus, an s-PMS solution was produced. 1 mL of RO water was added to 129 mg of nickel chloride to dissolve the salt, and thus a nickel solution was produced.
40 μL of the reaction solution was added to 10 μL each of an aqueous glucose solution at a concentration of 125 mg/dL, an aqueous glucose solution at a concentration of 250 mg/dL, and an aqueous glucose solution at a concentration of 1,000 mg/dL, and the mixtures were allowed to develop color. The spectra were measured with a spectrophotometer (measurement cell length: 50 μm) (n=1). […] Thus, the gradient (gradientsample) was determined.
40 μL of the control reaction solution was added to 10 μL each of an aqueous glucose solution at a concentration of 125 mg/dL, an aqueous glucose solution at a concentration of 250 mg/dL, and an aqueous glucose solution at a concentration of 1,000 mg/dL, and the mixtures were allowed to develop color. The spectra were measured with a spectrophotometer (measurement cell length: 50 μm) (n=1). For each of the spectra, the absorbance at 650 nm, which is the measurement wavelength (λmax) of WST-4, was measured, and the glucose concentration in the colored solution and the absorbance were plotted on the horizontal axis and the vertical axis, respectively. Thus, the gradient (gradientWST-4) was determined.
FIG. 2 is a graph showing the relationship between the glucose concentration and the absorbance of produced formazan in relation to the tetrazolium compound 1 and WST-4. […] Meanwhile, the gradient serves as an index for the color development intensity of each compound. Therefore, when the value obtained by dividing the gradientsample by the gradientWST-4 (gradientsample/gradientWST-4) is greater than one-fold, it is implied that the intensity of color development on the longer wavelength side is higher compared to WST-4, which is a well-known indicator reagent.

[3] = Evaluation of water-solubility (visual check for precipitate); type: physicochemical; conditions: RO water and 0.5 M MOPS pH 7.2, 200, 100, 20 mM, stirred 5 minutes; for solubility at 5 min: RO water / 0.5 M MOPS solution (1:1), aqueous buffer, thermodynamic from solid
Protocol: After the mixture was stirred for 5 minutes, a precipitate was checked by visual inspection. […] After the mixture was stirred for 5 minutes, a precipitate was checked by visual inspection. […] After the mixture was stirred for 5 minutes, a precipitate was checked by visual inspection.

[4] = Evaluation of stability (absorbance increase of measurement solution over 6 hours); conditions: FIG. 3; absorbance increase per hour over 6 hours
Protocol: To 0.02 mmol of each compound, 75 μL of RO water and 100 μL of a 0.5 M MOPS solution (pH 7.2) were added, and the compound was dissolved therein. The solution was used as a sample.
To 175 μL of this sample, 10 μL of the GDH solution, 5 μL of the m-PMS solution, and 10 μL of the nickel solution, all of which had been produced in the same manner as in the above section (Evaluation of sensitivity), were added, and thereby a measurement solution was produced.
As a control, 85 μL of RO water and 100 μL of a 0.5 M MOPS solution (pH 7.2) were added to 11.6 mg of 2-benzothiazolyl-3-(4-carboxy-2-methoxyphenyl)-5-[4-(2-sulfoethylcarbamoyl)phenyl]-2H-tetrazolium (WST-4), and the compound was dissolved. Thus, a control sample was produced. […] Thus, a control reaction solution was produced.
At the time of production of the measurement solution (0 hour), and after 1 hour, 2 hours, and 6 hours from the production, the spectra of the measurement solutions produced as described above were measured using a spectrophotometer (measurement cell length: 50 μm) (n=1). For each spectrum, the absorbance at the maximum absorption wavelength (λmax) of each compound as determined above was measured. The absorbances measured at the time of production of the measurement solution (0 hour) and after 6 hours from the production were designated as Abs0 h and Abs6 h, respectively. […]

Row | Maximum absorption wavelength (λmax) [1] | [(Abs6 h−Abs0 h)/6] value [4] | solubility at 5 min [3] | Molecule | gradient (absorbance versus glucose concentration) ([2]; FIG. 2, compound 1 at its λmax with nickel, WST-4 at 650 nm without nickel) | Sensitivity, comparison with Comparative Example 5 (ratio) [2] | Water-solubility [3] | Sensitivity, comparison with Comparative Example 5 (rating) [2]
1 | 580 nm |  | 100 to 200 mM (≈ 62.6 to 125 mg/mL) | COc1ccc(S(=O)(=O)O)cc1-[n+]1nc(-c2ccc(S(=O)(=O)O)cc2S(=O)(=O)[O-])nn1-c1nc2ccccc2s1 [Comparative Example 1, reference compound] |  |  |  | Δ (the value of the ratio gradientsample/gradientWST-4 was greater than 1 and less than 1.5)
2 | 600 nm |  | > 200 mM | COc1ccc2nc(-n3nc(-c4ccc(S(=O)(=O)O)cc4S(=O)(=O)[O-])n[n+]3-c3cc(S(=O)(=O)O)ccc3OC)sc2c1 [Example 2] |  |  |  | ⊙ (gradientsample/gradientWST-4) was 2 or greater)
3 | 650 nm |  | 20 to 100 mM | COc1ccc2nc(-n3nc(-c4ccc(S(=O)(=O)[O-])cc4S(=O)(=O)[O-])n[n+]3-c3ccc([N+](=O)[O-])cc3OC)sc2c1.[Na+] [Example 4] |  |  |  | ⊙ (gradientsample/gradientWST-4) was 2 or greater)
4 | 630 nm |  | 100 to 200 mM | COc1ccc2nc(-n3nc(-c4ccc(O)cc4S(=O)(=O)[O-])n[n+]3-c3cc(S(=O)(=O)[O-])ccc3OC)sc2c1.[Na+] [Example 5] |  |  |  | ◯ (the value of the ratio gradientsample/gradientWST-4 was 1.5 or greater and less than 2)
5 | 650 nm |  | 20 to 100 mM | COc1ccc2nc(-n3nc(-c4ccc(O)c(S(=O)(=O)[O-])c4)n[n+]3-c3cc(S(=O)(=O)[O-])ccc3OC)sc2c1.[Na+] [Example 6] |  |  |  | ⊙ (gradientsample/gradientWST-4) was 2 or greater)
6 | 645 nm |  | 100 to 200 mM | COc1ccc2nc(-n3nc(-c4ccccc4S(=O)(=O)[O-])n[n+]3-c3ccc(S(=O)(=O)[O-])cc3)sc2c1.[Na+] [Example 7] |  |  |  | ⊙ (gradientsample/gradientWST-4) was 2 or greater)
7 | 640 nm |  | > 200 mM | COc1ccc2nc(-n3nc(-c4cc(S(=O)(=O)O)cc(S(=O)(=O)O)c4)n[n+]3-c3ccc(OC)c(S(=O)(=O)[O-])c3)sc2c1 [Example 9] |  |  |  | ◯ (the value of the ratio gradientsample/gradientWST-4 was 1.5 or greater and less than 2)
8 | 625 nm |  | > 200 mM | COc1ccc(S(=O)(=O)O)cc1-[n+]1nc(-c2ccc(S(=O)(=O)O)cc2S(=O)(=O)[O-])nn1-c1nc2cc3c(cc2s1)OCO3 [Example 13] |  | 2.4 times |  | ⊙ (gradientsample/gradientWST-4) was 2 or greater)
9 | 610 nm |  | > 200 mM | COc1ccc(S(=O)(=O)O)cc1-[n+]1nc(-c2ccc(S(=O)(=O)O)cc2S(=O)(=O)[O-])nn1-c1nc2cc3c(cc2s1)OCCO3 [Example 14] |  | 2.4 times |  | ⊙ (gradientsample/gradientWST-4) was 2 or greater)
10 | 630 nm |  | > 200 mM | CCOc1ccc2nc(-n3nc(-c4ccc(S(=O)(=O)O)cc4S(=O)(=O)O)n[n+]3-c3ccc(OC)c(S(=O)(=O)[O-])c3)sc2c1 [Example 20] |  | 2.4 times |  | ⊙ (gradientsample/gradientWST-4) was 2 or greater)

Continued, molecule first:

Row | Molecule | Maximum absorption wavelength (λmax) [1] | [(Abs6 h−Abs0 h)/6] value [4] | solubility at 5 min [3] | gradient (absorbance versus glucose concentration) ([2]; FIG. 2, compound 1 at its λmax with nickel, WST-4 at 650 nm without nickel) | Sensitivity, comparison with Comparative Example 5 (ratio) [2] | Water-solubility [3] | Sensitivity, comparison with Comparative Example 5 (rating) [2]
11 | 2-benzothiazolyl-3-(4-carboxy-2-methoxyphenyl)-5-[4-(2-sulfoethylcarbamoyl)phenyl]-2H-tetrazolium [Comparative Example 5, reference compound] | No chelation | about 0.01 |  | 0.0026 | 1 times | ◯ (a precipitate was seen in the 200 mM aqueous solution, but there was no precipitate in the 100 mM aqueous solution) | 
12 | COc1ccc2nc(-n3nc(-c4ccc(S(=O)(=O)O)cc4S(=O)(=O)O)n[n+]3-c3cc(S(=O)(=O)[O-])c([N+](=O)[O-])cc3OC)sc2c1 [Example 3] | 630 nm |  | > 200 mM |  |  |  | ◯ (the value of the ratio gradientsample/gradientWST-4 was 1.5 or greater and less than 2)
13 | COc1ccc2nc(-n3nc(-c4cc(S(=O)(=O)[O-])cc(S(=O)(=O)O)c4)n[n+]3-c3cc(S(=O)(=O)O)ccc3OC)sc2c1 [Example 8] | 620 nm |  | > 200 mM |  |  |  | ◯ (the value of the ratio gradientsample/gradientWST-4 was 1.5 or greater and less than 2)
14 | COc1ccc2nc(-n3nc(-c4ccc(S(=O)(=O)O)cc4S(=O)(=O)[O-])n[n+]3-c3ccc(C(=O)O)cc3OC)sc2c1 [Example 10] | 620 nm |  | > 200 mM |  |  |  | ◯ (the value of the ratio gradientsample/gradientWST-4 was 1.5 or greater and less than 2)
15 | COc1ccc2nc(-n3nc(-c4cc(S(=O)(=O)[O-])cc(S(=O)(=O)O)c4)n[n+]3-c3cc(C(=O)O)ccc3OC)sc2c1 [Example 11] | 605 nm |  | > 200 mM |  |  |  | ◯ (the value of the ratio gradientsample/gradientWST-4 was 1.5 or greater and less than 2)
16 | COc1ccc2nc(-n3nc(-c4ccc(S(=O)(=O)O)cc4S(=O)(=O)[O-])n[n+]3-c3ccc(OC)c(C(=O)O)c3)sc2c1 [Example 12] | 630 nm |  | > 200 mM |  | 2.4 times |  | ⊙ (gradientsample/gradientWST-4) was 2 or greater)
17 | COc1ccc(-[n+]2nc(-c3ccc(S(=O)(=O)O)cc3S(=O)(=O)O)nn2-c2nc3cc4c(cc3s2)OCO4)cc1S(=O)(=O)[O-] [Example 17] | 650 nm |  | > 200 mM |  | 2.4 times |  | ⊙ (gradientsample/gradientWST-4) was 2 or greater)
18 | COc1ccc(-[n+]2nc(-c3ccc(S(=O)(=O)O)cc3S(=O)(=O)O)nn2-c2nc3cc4c(cc3s2)OCCO4)cc1S(=O)(=O)[O-] [Example 19] | 640 nm |  | > 200 mM |  | 2.4 times |  | ⊙ (gradientsample/gradientWST-4) was 2 or greater)
19 | COc1ccccc1-[n+]1nc(-c2ccc(S(=O)(=O)O)cc2S(=O)(=O)[O-])nn1-c1nc2ccccc2s1 [compound 4, reference compound] | 580 nm |  | 100 to 200 mM (≈ 54.6 to 109 mg/mL) |  |  |  | ⊙ (gradientsample/gradientWST-4) was 2 or greater)
